pIC50: −log10 of the molar value. Like-named read-outs stand apart in the source and are kept apart here.
Legend:
Target C = test: RT-qPCR splicing assay panel, Target C canonical junction (CJ) mRNA; format: cell-based, human; conditions: Table 5 panel, canonical junction qPCR, compound concentration having 50% response in CJ decrease, read-out: Target C IC50 (decrease in CJ mRNA levels)
Method in brief: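 Canonical-junction transcript levels in compound-treated A673 or K562 cells (24 h, up to 10 uM final) were determined from lysates by RT-qPCR with housekeeping-gene normalization.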

HTT = test: HiBiT protein abundance assay, HTT HiBiT K562 cell line; format: cell-based, human; conditions: HiBiT K562 cell line, 24 hours, top dose 10 μM; read-out: Effect on protein abundance, HTT (IC50 category)
Method in brief: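 Endogenous targets in K562 knock-in lines carried a HiBiT tag and were treated for 24 h at 37 °C with 10-point 3-fold dilutions (top 10 μM final, DMSO ≤0.25%). Abundance was read as lytic Nano-Glo HiBiT luminescence. IC50 came from a four-parameter logistic fit of normalized response.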

Row | SMILES | pIC50 (Target C; Homo sapiens) | pIC50 (HTT) | pIC50 (Target C)
1 | Cc1nc2c(F)cc(-c3ccc4c(=O)n(C5CCNCC5)ncc4c3)cc2s1 [Compound 253] | 5.00 to 6.00 | 5.00 to 6.00 | –
2 | Cc1cn2cc(-c3ccc4c(=O)n(C5CCNCC5)ncc4c3)cc(C(F)(F)F)c2n1 [Compound 262] | 5.00 to 6.00 | 5.00 to 6.00 | –
3 | Cc1cn2nc(-c3ccc4c(=O)n(C5CCNC5)ncc4c3)cc(C)c2n1 (stereo not shown) [Compound 264] | < 5.00 | 5.00 to 6.00 | –
4 | Cc1cn2cc(-c3ccc4c(c3)CCN(C3CCNCC3)C4=O)cc(C(F)(F)F)c2n1 [Compound 252] | < 5.00 | < 5.00 | –
5 | O=c1c2ccc(-c3cn[nH]c3)cc2cnn1C1CCNCC1 [Compound 261] | < 5.00 | < 5.00 | –
6 | Cc1cn2cc(-c3ccc4c(c3)CCN(C3CCNCC3)C4=O)cc(F)c2n1 [Compound 247] | 5.00 to 6.00 | 6.00 to 7.00 | –
7 | Cc1cc(-c2ccc3c(=O)n(C4CCNCC4)ncc3c2)cc2cn(C)nc12 [Compound 251] | 6.00 to 7.00 | 6.00 to 7.00 | –
8 | Cc1cn2nc(-c3ccc4c(=O)n(C5CCNCC5)ncc4c3)nc2c(C)n1 [Compound 259] | 6.00 to 7.00 | 6.00 to 7.00 | –
9 | Cc1nc2c(F)cc(-c3ccc4c(=O)n(C5CCNCC5)ncc4c3)cc2o1 [Compound 250] | 6.00 to 7.00 | > 7.00 | –
10 | Cc1cn2cc(-c3ccc4c(=O)n(C5CCNCC5)ncc4c3)cc(Cl)c2n1 [Compound 256] | < 5.00 | 6.00 to 7.00 | –
11 | Cn1cc2ccc(-c3ccc4c(=O)n(C5CCNCC5)ncc4c3)cc2n1 [Compound 263] | < 5.00 | < 5.00 | –
12 | Cn1cc2cc(-c3ccc4c(=O)n(C5CCNCC5)ncc4c3)cc(F)c2n1 [Compound 249] | 5.00 to 6.00 | 5.00 to 6.00 | –
13 | Cc1cn2nc(-c3ccc4c(=O)n(C5CCN(C)CC5)ncc4c3)cc(C)c2n1 [Compound 265] | 6.00 to 7.00 | > 7.00 | –

Other lines, results leading:

Row | pIC50 (Target C; Homo sapiens) | pIC50 (HTT) | pIC50 (Target C) | SMILES
14 | > 7.00 | > 7.00 | – | Cc1cn2nc(-c3cc(F)c4c(=O)n(C5CCNCC5)cnc4c3)cc(C)c2n1 [Compound 243]
15 | 6.00 to 7.00 | > 7.00 | – | Cc1cn2cc(-c3ccc4c(=O)n(C5CCNCC5)ncc4c3)cc(F)c2n1 [Compound 248]
16 | – | > 7.00 | 6.00 to 7.00 | Cc1cn2nc(-c3ccc4c(=O)n([C@@H]5CCNC6(CC6)C5)cnc4c3)cc(C)c2n1 [Compound 444]
17 | 6.00 to 7.00 | 6.00 to 7.00 | – | Cc1nc2c(F)cc(-c3ccc4c(=O)n(C5CCNCC5)cnc4c3)cc2o1 [Compound 245]
18 | 5.00 to 6.00 | 5.00 to 6.00 | – | Cc1cn2cc(-c3ccc4c(=O)n(C5CCN(C)CC5)cnc4c3)c(C)cc2n1 [Compound 246]
19 | < 5.00 | < 5.00 | – | Cc1cn2cc(-c3ccc4c(=O)n(C5CCNCC5)cnc4c3)c(C)cc2n1 [Compound 244]
20 | 5.00 to 6.00 | 6.00 to 7.00 | – | Cc1cn2cc(-c3ccc4c(=O)n(C5CCNCC5)ncc4c3)cc(C)c2n1 [Compound 257]
21 | < 5.00 | < 5.00 | – | Cc1cn2cc(-c3ccc4c(=O)n(C5CCNCC5)ncc4c3)ncc2n1 [Compound 255]
22 | 5.00 to 6.00 | 6.00 to 7.00 | – | Cc1cn2nc(-c3ccc4c(=O)n(C5CCNCC5)ncc4c3)cc2c(C)n1 [Compound 260]
23 | 5.00 to 6.00 | 5.00 to 6.00 | – | Cc1cn2cc(-c3ccc4c(=O)n(C5CCNCC5)ncc4c3)c(C)cc2n1 [Compound 254]

— patent publication US20250332173A1, “COMPOUNDS AND METHODS FOR MODULATING NUCLEIC ACID SPLICING” (REMIX THERAPEUTICS INC., priority 2021, published 2025)
